Assay results: patent US20260285850A1, “SUBSTITUTED OXAZOLIDINONES AND IMIDAZOLINONES AS HERBICIDES” (FMC CORPORATION, priority 2023, published 2026)

Assays:
Type in all cases: in vivo
[1] = system: wheat (Triticum aestivum); assay: Test A preemergence soil spray, visual injury rating 0-100; settings: 10 days, 0 = no effect, 100 = complete control
In short: (§1)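 Visual injury ratings (0, no effect; 100, complete control) were assigned relative to untreated plants 10 days after treatment. Test chemicals, formulated with a surfactant-containing non-phytotoxic solvent, were applied in loam-sand soil either as a directed soil spray before emergence or to emerged plants, and plants were kept in a greenhouse.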

[2] = system: palmer (palmer amaranth, palmer pigweed, Amaranthus palmeri); assay: as above; settings: 10 days, 0 = no effect, 100 = complete control
In short: as §1

[3] = system: green foxtail (Setaria viridis); assay: as above; settings: 10 days, 0 = no effect, 100 = complete control
In short: as §1

[4] = system: ryegrass, Italian (italian ryegrass, Lolium multiflorum); assay: as above; settings: 10 days, 0 = no effect, 100 = complete control
In short: as §1

kochia (Bassia scoparia) [5] = assay: as above; settings: 10 days, 0 = no effect, 100 = complete control
In short: as §1

[6] = system: blackgrass (Alopecurus myosuroides); assay: as above; settings: 10 days, 0 = no effect, 100 = complete control
In short: as §1

[7] = system: barnyardgrass (Echinochloa crus-galli); assay: as above; settings: 10 days, 0 = no effect, 100 = complete control
In short: as §1

[8] = system: ragweed (common ragweed, Ambrosia artemisiifolia); assay: as above; settings: 10 days, 0 = no effect, 100 = complete control
In short: as §1

[9] = system: oat, wild (wild oat, Avena fatua); assay: as above; settings: 10 days, 0 = no effect, 100 = complete control
In short: as §1

soybean (Glycine max) [10] = assay: as above; settings: 10 days, 0 = no effect, 100 = complete control
In short: as §1

corn (Zea mays) [11] = assay: as above; settings: 10 days, 0 = no effect, 100 = complete control
In short: as §1

[12] = system: wheat (Triticum aestivum); assay: Test A postemergence application, visual injury rating 0-100; settings: 10 days
In short: as §1

[13] = system: palmer (palmer amaranth, palmer pigweed, Amaranthus palmeri); assay: as above; settings: 10 days
In short: as §1

[14] = system: green foxtail (Setaria viridis); assay: as above; settings: 10 days
In short: as §1

[15] = system: horseweed (Erigeron canadensis); assay: as above; settings: 10 days
In short: as §1

[16] = system: galium (catchweed bedstraw, Galium aparine); assay: as above; settings: 10 days
In short: as §1

[17] = system: ryegrass, Italian (italian ryegrass, Lolium multiflorum); assay: as above; settings: 10 days
In short: as §1

kochia (Bassia scoparia) [18] = assay: as above; settings: 10 days
In short: as §1

[19] = system: blackgrass (Alopecurus myosuroides); assay: as above; settings: 10 days
In short: as §1

[20] = system: barnyardgrass (Echinochloa crus-galli); assay: as above; settings: 10 days
In short: as §1

[21] = system: ragweed (common ragweed, Ambrosia artemisiifolia); assay: as above; settings: 10 days
In short: as §1

[22] = system: oat, wild (wild oat, Avena fatua); assay: as above; settings: 10 days
In short: as §1

soybean (Glycine max) [23] = assay: as above; settings: 10 days
In short: as §1

corn (Zea mays) [24] = assay: as above; settings: 10 days
In short: as §1

[25] = system: ducksalad (Heteranthera limosa); assay: Test B flooded paddy test, visual plant response rating 0-100; settings: 250 g ai/ha, Flood, applied to paddy water, evaluated after 13 days
In short: (§2)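 2-leaf plants; flood 3 cm over soil; compound dosed into paddy water; depth kept constant; greenhouse 13 d; visual scoring vs controls. Dash = no result.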

[26] = system: barnyardgrass (Echinochloa crusgalli); assay: as above; settings: 250 g ai/ha, Flood, applied to paddy water, evaluated after 13 days
In short: as §2

rice (Oryza sativa) = assay: as above; settings: 250 g ai/ha, Flood, applied to paddy water, evaluated after 13 days
In short: as §2

[27] = system: sedge, umbrella (small-flower umbrella sedge, Cyperus difformis); assay: as above; settings: 250 g ai/ha, Flood, applied to paddy water, evaluated after 13 days
In short: as §2

[28] = 31 g ai/ha, postemergence, 0 = no effect, 100 = complete control
[29] = Postemergence, 125 g ai/ha, 0 is no effect, 100 is complete control

In the case of `CC1(C(=O)NC2CC=C(C(=O)OCC(F)(F)F)C2)CN(c2cc(F)cc(F)c2)C(=O)O1` (single isomer, unassigned) [Compound 24], the “Wheat plant response rating (0-100)” value ([1]; 31 g ai/ha) is reported as 0, the “Wheat plant response rating (0 to 100 scale)” value ([1]; 125 g ai/ha) is reported as 70 and the “Amaranth, Palmer plant response rating (0-100)” value ([2]; 31 g ai/ha) is reported as 30. For the same compound, the “Amaranth, Palmer plant response rating (0 to 100 scale)” value ([2]; 125 g ai/ha) was 70, the “Foxtail, Green plant response rating (0-100)” value ([3]; 31 g ai/ha) was 50 and the “Foxtail, Green plant response rating (0 to 100 scale)” value ([3]; 125 g ai/ha) was 50. The “Ryegrass, Italian plant response rating (0-100)” value ([4]; 31 g ai/ha) was 0, the “Ryegrass, Italian plant response rating (0 to 100 scale)” value ([4]; 125 g ai/ha) was 0 and the “Kochia plant response rating (0-100)” value (kochia (Bassia scoparia) [5]; 31 g ai/ha) was 0. The “Kochia plant response rating (0 to 100 scale)” value (kochia (Bassia scoparia) [5]; 125 g ai/ha) was 0, the “Blackgrass plant response rating (0-100)” value ([6]; 31 g ai/ha) was 0 and the “Blackgrass plant response rating (0 to 100 scale)” value ([6]; 125 g ai/ha) was 0. For the same compound, the “Barnyardgrass plant response rating (0-100)” value ([7]; 31 g ai/ha) was 10, the “Barnyardgrass plant response rating (0 to 100 scale)” value ([7]; 125 g ai/ha) was 10 and the “Ragweed plant response rating (0-100)” value ([8]; 31 g ai/ha) was 0. The “Ragweed plant response rating (0 to 100 scale)” value ([8]; 125 g ai/ha) was 10, the “Oat, Wild plant response rating (0-100)” value ([9]; 31 g ai/ha) was 0 and the “Oat, Wild plant response rating (0 to 100 scale)” value ([9]; 125 g ai/ha) was 20. For the same compound, the “Soybean plant response rating (0-100)” value (soybean (Glycine max) [10]; 31 g ai/ha) was 0, the “Soybean plant response rating (0 to 100 scale)” value (soybean (Glycine max) [10]; 125 g ai/ha) was 10 and the “Corn plant response rating (0-100)” value (corn (Zea mays) [11]; 31 g ai/ha) was 0. The “Corn plant response rating (0 to 100 scale)” value (corn (Zea mays) [11]; 125 g ai/ha) was 0, the “Wheat plant response rating (0-100)” value [12, 28] was 30 and the “Wheat plant response rating (0 to 100 scale)” value [12, 29] was 90. The “Amaranth, Palmer plant response rating (0-100)” value [13, 28] was 0, the “Amaranth, Palmer / Pigweed, Palmer plant response rating (0 to 100 scale)” value [13, 29] was 40 and the “Foxtail, Green plant response rating (0-100)” value [14, 28] was 0. For the same compound, the “Foxtail, Green plant response rating (0 to 100 scale)” value [14, 29] was 60, the “Horseweed plant response rating (0-100)” value [15, 28] was 20 and the “Horseweed plant response rating (0 to 100 scale)” value [15, 29] was 10. The “Galium plant response rating (0-100)” value [16, 28] was 40, the “Galium plant response rating (0 to 100 scale)” value [16, 29] was 80 and the “Ryegrass, Italian plant response rating (0-100)” value [17, 28] was 40. For the same compound, the “Ryegrass, Italian plant response rating (0 to 100 scale)” value [17, 29] was 60, the “Kochia plant response rating (0-100)” value (kochia (Bassia scoparia) [18]; [28]) was 20 and the “Kochia plant response rating (0 to 100 scale)” value (kochia (Bassia scoparia) [18]; [29]) was 90. The “Blackgrass plant response rating (0-100)” value [19, 28] was 0, the “Blackgrass plant response rating (0 to 100 scale)” value [19, 29] was 60 and the “Barnyardgrass plant response rating (0-100)” value [20, 28] was 20. For the same compound, the “Barnyardgrass plant response rating (0 to 100 scale)” value [20, 29] was 80, the “Ragweed plant response rating (0-100)” value [21, 28] was 20 and the “Ragweed plant response rating (0 to 100 scale)” value [21, 29] was 30. For the same compound, the “Oat, Wild plant response rating (0-100)” value [22, 28] was 10, the “Oat, Wild plant response rating (0 to 100 scale)” value [22, 29] was 60 and the “Soybean plant response rating (0-100)” value (soybean (Glycine max) [23]; [28]) was 0. For the same compound, the “Soybean plant response rating (0 to 100 scale)” value (soybean (Glycine max) [23]; [29]) was 60, the “Corn plant response rating (0-100)” value (corn (Zea mays) [24]; [28]) was 10 and the “Corn plant response rating (0 to 100 scale)” value (corn (Zea mays) [24]; [29]) was 90. For the same compound, the “Plant response rating, Ducksalad (0 to 100 scale, 0 is no effect and 100 is complete control)” value [25] was 0, the “Plant response rating, Barnyardgrass (0 to 100 scale, 0 is no effect and 100 is complete control)” value [26] was 0 and the “Plant response rating, Rice (0 to 100 scale, 0 is no effect and 100 is complete control)” value (rice (Oryza sativa)) was 0. For the same compound, the “Plant response rating, Sedge, Umbrella (0 to 100 scale, 0 is no effect and 100 is complete control)” value [27] was 0.
